Results published in patent US20060183676A1, “Treatment of mycobacterium tuberculosis with antisense oligonucleotides” (priority 2001, published 2006).
In brackets after ≈: the same amount, converted by molar mass. Like-named read-outs stand apart in the source and are kept apart here. In the oligonucleotide strings, read from the 5' end, every base follows the letter of its sugar. An asterisk marks phosphorothioate; unmarked linkages are phosphodiester. Other units and linkages are bracketed, terminal groups are in braces. A string of capitals states the bases alone. Bridge positions count the residues as written; N and C are the ends. Square brackets hold non-standard residues; d marks the D form. Peptide text beside a SMILES is read from it. {FL} = fluorescein label; Dab = NCC[C@H](N)C(=O)O; d = 2'-deoxy (DNA); m = 2'-O-methyl

Legend:
[1] = tested on: M. tuberculosis Erdman strain; format: cell-based
[2] = tested on: M. tuberculosis Erdman strain; format: cell-based; settings: 6 weeks, O.D.; for inhibition of M. tuberculosis in the presence of antibiotic (in words): 10 μM plus ethambutol 5 μg/ml; for M. tuberculosis growth in the absence of antibiotic (in words): 10 μM
M. tuberculosis = format: cell-based; settings: log reduction in CFU vs untreated control or MM-PS-ODN cultures; 10 μM, added once at start
M. tuberculosis Erdman [3] = settings: Harth et al. 1999, cited from earlier work
[4] = tested on: poly-L-glutamate/glutamine in the cell wall of M. tuberculosis; settings: 20 μM; Harth et al. 1999; cited from earlier work
[5] = tested on: M. tuberculosis Erdman glutamine synthetase; settings: 20 μM; Harth et al. 1999; cited from earlier work
M. tuberculosis Erdman [6] = format: cell-based
M. smegmatis 1-2c [7] = assay: microbe, parasite or virus in culture; settings: Mycolicibacterium smegmatis, 12C
M. tuberculosis Erdman [8] = assay: microbe, parasite or virus in culture; settings: Mycobacterium tuberculosis
M. tuberculosis Erdman [9] = tested on: M. tuberculosis Erdman
M. smegmatis 1-2c [10] = tested on: M. smegmatis 1-2c

For “5-GAACGCCGGGGTGTTGATGTCCCAGCCG (SEQ ID NO: 14) [ML10]”, the “inhibition of M. tuberculosis growth in the presence of ethambutol, added only once” value ([1]; 10 μM plus ethambutol 5 μg/ml, 9 weeks) was “slightly enhanced the inhibition”, the “M. tuberculosis growth relative to control, added only once at the start” value ([1]; 10 μM, no antibiotic, 9 weeks, O.D.) was “slightly inhibited” and the “M. tuberculosis growth relative to control, added weekly for 9 weeks” value ([1]; 10 μM, no antibiotic, O.D.) was “inhibited”.

With “5′-CACCTTCGCCACGATTGGAGCCCTCCA (SEQ ID NO: 13) (phosphorothioate, further chemistry not given here; listed as Mycobacterium tuberculosis) [Val 41, PS-ODN against nucleotides −15 to 12 of the groES gene]” the “inhibition of M. tuberculosis in the presence of antibiotic (in words)” value (“inhibition of M. tuberculosis … (in words)” for short) [2] was “enhanced the inhibition” and the “M. tuberculosis growth in the absence of antibiotic (in words)” value (“M. tuberculosis growth in the absence” below) [2] was “did not inhibit”.

With “5′-CCATGTCTTCACCGCTTCATCCTG (SEQ ID NO: 10) [Val 26]” the “inhibition of M. tuberculosis … (in words)” value [2] was “enhanced the inhibition” and the “M. tuberculosis growth in the absence” value [2] was “did not inhibit”.

With “5′-CGCTTCATCCTGCCGTGTCGG (SEQ ID NO: 8) [Val 24]” the “inhibition of M. tuberculosis … (in words)” value [2] was “enhanced the inhibition” and the “M. tuberculosis growth in the absence” value [2] was “did not inhibit”.

With “5′-TGCCGCAGCCACGGCGACGGCCGTGGT (SEQ ID NO: 11) [Val 33]” the “inhibition of M. tuberculosis … (in words)” value [2] was “enhanced the inhibition” and the “M. tuberculosis growth in the absence” value [2] was “inhibited”.

For “5′-TGCCGCAGCCACGGCGACGGCCGTGGTGTCCGAACC (SEQ ID NO: 12) [Val 34]”, the “inhibition of M. tuberculosis … (in words)” value [2] was “enhanced the inhibition” and the “M. tuberculosis growth in the absence” value [2] was “inhibited”.

With “5′-TGGCCATGTCTTCACCGCTTCATCCTG (SEQ ID NO: 9) [Val 25]” the “M. tuberculosis growth in the absence” value [2] was “did not inhibit”.

In the case of “5′-TGGGGCTGGCCATGTCTTCAC-3′ (SEQ ID NO: 7) [Val 23]”, the “inhibition of M. tuberculosis … (in words)” value [2] is reported as “enhanced the inhibition” and the “M. tuberculosis growth in the absence” value [2] is reported as “inhibited”.

With “5′>2′OMeACGAAC-CCTGTCAACAAG-2′OMeCTGCAT (antisense ACGAACCCTGTCAACAAGCTGCAT; sugars from the 5' end m6 d12 m6, all phosphorothioate, T or U not given here) [fbpA (SEQ ID NO: 26), antisense PS-ODN against fbpA with O-methyl groups at the 5′ and 3′ ends]” the “log Reduction” value (M. tuberculosis) was 0.4 log.

In the case of “5′>2′OMeATTCTT-TCGGCTCACGTC-2′OMeTGTCAT [fbpB (SEQ ID NO: 25)]”, the “log Reduction” value (M. tuberculosis) is reported as 0.4 log.

For “5′>AACGAATTCCTTCTGTCGGTCCAT (dA*dA*dC*dG*dA*dA*dT*dT*dC*dC*dT*dT*dC*dT*dG*dT*dC*dG*dG*dT*dC*dC*dA*dT; antisense) [glnA2]”, the “log Reduction” value (M. tuberculosis) was 0.05-0.1 log.

For “5′>AACGGGAGTGACACGTGATTCCAT (dA*dA*dC*dG*dG*dG*dA*dG*dT*dG*dA*dC*dA*dC*dG*dT*dG*dA*dT*dT*dC*dC*dA*dT) [mas]”, the “log Reduction” value (M. tuberculosis) was 0.35 log.

In the case of “5′>AATCCGGCTGAAAGCCGTTCGCATCAC (dA*dA*dT*dC*dC*dG*dG*dC*dT*dG*dA*dA*dA*dG*dC*dC*dG*dT*dT*dC*dG*dC*dA*dT*dC*dA*dC; antisense) [ppsB]”, the “log Reduction” value (M. tuberculosis) is reported as 0 log.

In the case of “5′>AATGATTTCTTCCTGAGTGACAGGCAC (dA*dA*dT*dG*dA*dT*dT*dT*dC*dT*dT*dC*dC*dT*dG*dA*dG*dT*dG*dA*dC*dA*dG*dG*dC*dA*dC; antisense) [acpM]”, the “log Reduction” value (M. tuberculosis) is reported as 0 log.

With “5′>ACGAACCCTGTCAACAAGCTGCAT-GGGGG (antisense dA*dC*dG*dA*dA*dC*dC*dC*dT*dG*dT*dC*dA*dA*dC*dA*dA*dG*dC*dT*dG*dC*dA*dT*dG*dG*dG*dG*dG) [fbpA (SEQ ID NO: 27), antisense PS-ODN against fbpA with five Gs attached to the 3′ end]” the “log Reduction” value (M. tuberculosis) was 0.8 log.

In the case of “5′>CAAGATGGACACCGTCACCGCTAC (dC*dA*dA*dG*dA*dT*dG*dG*dA*dC*dA*dC*dC*dG*dT*dC*dA*dC*dC*dG*dC*dT*dA*dC; antisense) [murX]”, the “log Reduction” value (M. tuberculosis) is reported as 0 log.

For “5′>CACATCCAGCGACTTGGCCAGCTC (dC*dA*dC*dA*dT*dC*dC*dA*dG*dC*dG*dA*dC*dT*dT*dG*dG*dC*dC*dA*dG*dC*dT*dC; antisense) [rfbE]”, the “log Reduction” value (M. tuberculosis) was 0 log.

With “5′>CGCCGCGCGCTCCGCCAGACTTGTCAT (dC*dG*dC*dC*dG*dC*dG*dC*dG*dC*dT*dC*dC*dG*dC*dC*dA*dG*dA*dC*dT*dT*dG*dT*dC*dA*dT; antisense) [ppsD]” the “log Reduction” value (M. tuberculosis) was 0 log.

With “5′>CGCGATCGCGTTCTCGGGGATGCTCAC (dC*dG*dC*dG*dA*dT*dC*dG*dC*dG*dT*dT*dC*dT*dC*dG*dG*dG*dG*dA*dT*dG*dC*dT*dC*dA*dC; antisense) [ppsE]” the “log Reduction” value (M. tuberculosis) was 0 log.

In the case of “5′>CGGCCCTGCATGTCGGTGAACGCG (dC*dG*dG*dC*dC*dC*dT*dG*dC*dA*dT*dG*dT*dC*dG*dG*dT*dG*dA*dA*dC*dG*dC*dG; antisense) [glnA4]”, the “log Reduction” value (M. tuberculosis) is reported as 0 log.

With “5′>FL-GCCGGGGTGTTGATATCCCAGCCG (5' {FL}, sugars by position and backbone not given here) [fbpB (SEQ ID NO: 24), antisense PS-ODN against fbpB (30 kDa protein gene) with fluorescein attached to the 5′ end]” the “log Reduction” value (M. tuberculosis) was 0.6 log.

With “5′>GACATTCTCCCAGAACCGTTTCAC (chemistry not given here) [air, antisense PS-ODN against the alr gene (alanine racemase) transcript]” the “log Reduction” value (M. tuberculosis) was 0.2 log.

For “5′>GCACGGTCTTGGCCTGGGTGAGTC (dG*dC*dA*dC*dG*dG*dT*dC*dT*dT*dG*dG*dC*dC*dT*dG*dG*dG*dT*dG*dA*dG*dT*dC; antisense) [glnA3]”, the “log Reduction” value (M. tuberculosis) was 0 log.

In the case of “5′>GCCATTAGCGGTGGAAGGCTGACTCAC (dG*dC*dC*dA*dT*dT*dA*dG*dC*dG*dG*dT*dG*dG*dA*dA*dG*dG*dC*dT*dG*dA*dC*dT*dC*dA*dC; antisense) [kasA]”, the “log Reduction” value (M. tuberculosis) is reported as 0 log.

In the case of “5′>GCTCTGAAACGTGCCGGTCTGAAC (dG*dC*dT*dC*dT*dG*dA*dA*dA*dC*dG*dT*dG*dC*dC*dG*dG*dT*dC*dT*dG*dA*dA*dC; antisense) [fadD26]”, the “log Reduction” value (M. tuberculosis) is reported as 0.65 log.

With “5′>GGACACCTCGAGACCGTACTGCAC (dG*dG*dA*dC*dA*dC*dC*dT*dC*dG*dA*dG*dA*dC*dC*dG*dT*dA*dC*dT*dG*dC*dA*dC) [rfe]” the “log Reduction” value (M. tuberculosis) was 0.25 log.

For “5′>TC(c->g)GCGATCTGGTGTCGCTGCGGTCAT (phosphorothioate, 5' TC(c->g) prefix, further chemistry not given here) [ppsC]”, the “log Reduction” value (M. tuberculosis) was 0 log.

In the case of “5′>TTCACCACTGATGCTTCCCGTCAT (dT*dT*dC*dA*dC*dC*dA*dC*dT*dG*dA*dT*dG*dC*dT*dT*dC*dC*dC*dG*dT*dC*dA*dT; antisense) [ppsA]”, the “log Reduction” value (M. tuberculosis) is reported as 0 log.

With “5′>TTTGCCGTCCAGCAGTCCTGTCAT (chemistry not given here) [lnhA]” the “log Reduction” value (M. tuberculosis) was 0.05 log.

For CS(=N)(=O)CC[C@H](N)C(=O)O (stereo partly drawn) [L-methionine-S-sulfoximine], the “inhibition of bacterial growth” value (M. tuberculosis Erdman [3]; 2 μM) is listed as 1.5-2 log units, the “reduction of bacterial growth” value (M. tuberculosis Erdman [3]; 20 μM) is listed as at least 2.5 log units and the “reduction of the amount of the poly-L-glutamate/glutamine cell wall structure” value [4] is listed as 93%. For the same compound, the “reduction of extracellular glutamine synthetase activity” value [5] was 80%.

With NCC[C@H](O)C(=O)N[C@@H]1C[C@H](N)[C@@H](O[C@H]2O[C@H](CN)[C@@H](O)[C@H](O)[C@H]2O)[C@H](O)[C@H]1O[C@H]1O[C@H](CO)[C@@H](O)[C@H](N)[C@H]1O [amikacin, reference compound] the “antibacterial effect of free antibiotic (in words)” value (M. tuberculosis Erdman [6]; 1 μM) was “bacteriostatic” and the “antibacterial effect of free antibiotic (in words)” value (M. tuberculosis Erdman [6]; 5.8 μg per ml (10 μM)) was “strongly bactericidal”.

CC[C@@H](CO)NCCN[C@@H](CC)CO [ethambutol] gave an MIC (M. smegmatis 1-2c [7]) of about 10 µg/mL (≈ 48.9 µM) and an MIC (M. tuberculosis Erdman [8]) of about 5 µg/mL (≈ 24.5 µM).

CC(C)C[C@@H]1NC(=O)[C@@H](Cc2ccccc2)NC(=O)[C@H](CCN)NC(=O)[C@@H](NC(=O)[C@H](CCN)NC(=O)[C@@H](N)[C@@H](C)O)CCNC(=O)[C@H]([C@@H](C)O)NC(=O)[C@H](CCN)NC(=O)[C@H](CCN)NC1=O [polymyxin B nonapeptide] (H-T[Dab][Dab][Dab][dF]L[Dab][Dab]T; lactam 3-C; N-terminus assumed) gave an MIC (M. tuberculosis Erdman [9]) of about 5 µg/mL (≈ 5.19 µM) and an MIC (M. smegmatis 1-2c [10]) of about 5 µg/mL (≈ 5.19 µM).
